# Experimental data: patent US10138251B2, “Spiro[3H-indole-3,2′-pyrrolidin]-2(1H)-one compounds and derivatives as MDM2-P53 inhibitors” (Boehringer Ingelheim International GmbH, priority 2014, dated 2018)
# pIC50: −log10 of the molar value.
# Tested on: acute lymphoblastic leukemia (ALL) xenograft models with mixed-lineage leukemia (MLL) rearrangement
# Assay: not given
# Conditions: Carol et al. 2013; cited from earlier work
row,Compound,efficacy
1,CCOc1cc(C(C)(C)C)ccc1C1=N[C@@](C)(c2ccc(Cl)cc2)[C@@](C)(c2ccc(Cl)cc2)N1C(=O)N1CCN(CCCS(C)(=O)=O)CC1 [RG7112],particularly efficacious

# Target: T1, MDM2 (Homo sapiens, UniProt Q00987)
# T1 construct: 20 nM GST-MDM2 protein (aa 23-117)
# Assay: Mdm2-p53 Inhibition AlphaScreen
# Format: binding
# Conditions: 20 nM GST-MDM2 protein (aa 23-117), 20 nM biotinylated p53 wt peptide
# Method: Mdm2-p53 Inhibition AlphaScreen
# 15 μL of compound in 20% DMSO (serial pre-dilutions of compound are done in 100% DMSO) is pipetted to the wells of a white OptiPlate-96 (PerkinElmer). A mix consisting of 20 nM GST-MDM2 protein (aa 23-117) and 20 nM biotinylated p53 wt peptide (encompassing aa 16-27 of wt human p53, amino acid sequence QETFSDLWKLLP-Ttds-Lys-Biotin, molecular weight 2132.56 g/mol) is prepared in assay buffer (50 mM Tris/HCl pH 7.2; 120 mM NaCl; 0.1% bovine serum albumin (BSA); 5 mM dithiothreitol (DTT); 1 mM ethylenediaminetetraacetic acid (EDTA); 0.01% Tween 20). 30 μL of the mix is added to the compound dilutions and incubated for 15 min at rt while gently shaking the plate at 300 rounds per minute (rpm). Subsequently, 15 μL of premixed AlphaLISA Glutathione Acceptor Beads and AlphaScreen Streptavidin Donor Beads from PerkinElmer (in assay buffer at a concentration of 10 μg/mL each) are added and the samples are incubated for 30 min at rt in the dark (shaking 300 rpm). Afterwards, the signal is measured in a PerkinElmer Envision HTS Multilabel Reader using the AlphaScreen protocol from PerkinElmer.
# Each plate contains negative controls where biotinylated p53-peptide and GST-MDM2 are left out and replaced by assay buffer. Negative control values are entered as low basis value when using the software GraphPad Prism for calculations. Furthermore, a positive control (5% DMSO instead of test compound; with protein/peptide mix) is pipetted. Determination of IC50 values are carried out using GraphPad Prism 3.03 software (or updates thereof).
# T1 sequence (Q00987 23-117): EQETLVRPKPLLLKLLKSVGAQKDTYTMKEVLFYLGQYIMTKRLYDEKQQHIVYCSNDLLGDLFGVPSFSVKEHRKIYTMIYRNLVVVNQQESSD
row,Compound,pIC50
1,O=C(O)c1ccc([C@@H]2C[C@H]3[C@@H](N2)[C@H](c2cccc(Cl)c2F)[C@]2(C(=O)Nc4cc(Cl)ccc42)N3CC2CC2)cc1 [Compound I-30],7.39
2,CCOc1cccc(CN2[C@H]3CCN(CC4CC4C(N)=O)[C@H]3[C@H](c3cccc(Cl)c3F)[C@]23C(=O)Nc2cc(Cl)ccc23)c1 (stereo partly shown) [Compound I-74],7.68
3,O=C(O)C1CCC(CN2CC[C@H]3[C@@H]2[C@H](c2cccc(Cl)c2F)[C@]2(C(=O)Nc4cc(Cl)ccc42)N3CC2CC2)CC1 (stereo partly shown) [Compound I-61],6.56
4,O=C(O)c1ccc(CN2CC[C@H]3[C@@H]2[C@H](c2cccc(Cl)c2F)[C@]2(C(=O)Nc4cc(Cl)ccc42)N3CC2CC2)cc1 [Compound I-68],7.04
5,O=C(O)c1ccc([C@H]2CC[C@H]3[C@@H](N2)[C@H](c2cccc(Cl)c2F)[C@]2(C(=O)Nc4cc(Cl)ccc42)N3CC2CC2)cc1 [Compound I-39],6.91
6,O=C(O)c1ccc([C@@H]2C[C@H]3[C@@H](N2)[C@H](c2cccc(Cl)c2)[C@]2(C(=O)Nc4cc(Cl)ccc42)N3CC2CC2)cc1 [Compound I-25],7.31
7,O=C(O)C[C@@H]1C[C@H]2[C@@H](N1)[C@H](c1cccc(Cl)c1)[C@]1(C(=O)Nc3cc(Cl)ccc31)N2CC1CC1 [Compound I-47],6.55
8,CC(=O)N1CC[C@H]2C1[C@H](c1ccnc(Cl)c1F)[C@]1(C(=O)Nc3cc(Cl)ccc31)N2CC1CC1 (stereo partly shown) [Compound I-89],7.47
9,O=C(O)c1cccc([C@H]2C[C@H]3[C@@H](N2)[C@H](c2cccc(Cl)c2)[C@]2(C(=O)Nc4cc(Cl)ccc42)N3CC2CC2)c1 [Compound I-27],7.49
10,O=C(O)c1ccc([C@@H]2CC[C@H]3[C@@H](N2)[C@H](c2cccc(Cl)c2F)[C@]2(C(=O)Nc4cc(Cl)ccc42)N3CC2CC2)cc1 [Compound I-40],6.88
11,CCOc1cccc(CN2[C@H]3CCN(CC4CC4C(=O)O)[C@H]3[C@H](c3cccc(Cl)c3F)[C@]23C(=O)Nc2cc(Cl)ccc23)c1 (stereo partly shown) [Compound I-65],8.52
12,O=C(O)c1ccc([C@H]2C[C@H]3[C@@H](N2)[C@H](c2cccc(Cl)c2)[C@]2(C(=O)Nc4cc(Cl)ccc42)N3CC2CC2)cc1 [Compound I-24],7.64
13,O=C(O)c1ccc([C@H]2C[C@H]3[C@@H](N2)[C@H](c2cccc(Cl)c2F)[C@]2(C(=O)Nc4cc(Cl)c(F)cc42)N3CC2CC2)cc1 [Compound I-35],8.05

# Results, then the compound that gave them:
row,pIC50,Compound
1,5.89,O=C(O)c1[nH]ncc1CN1CC[C@H]2[C@@H]1[C@H](c1cccc(Cl)c1F)[C@]1(C(=O)Nc3cc(Cl)ccc31)N2CC1CC1 [Compound I-72]
2,6.41,O=C(Cc1cccnc1)N1CC[C@H]2C1[C@H](c1cccc(Cl)c1F)[C@]1(C(=O)Nc3cc(Cl)ccc31)N2CC1CC1 (stereo partly shown) [Compound I-79]
3,6.43,COc1cc([C@@H]2C[C@@H]3[C@H](N2)[C@@H](c2cccc(Cl)c2F)[C@@]2(C(=O)Nc4cc(Cl)ccc42)N3CC2CC2)ccc1C(=O)O [Compound I-32]
4,6.55,O=C(O)C[C@H]1C[C@H]2[C@@H](N1)[C@H](c1cccc(Cl)c1)[C@]1(C(=O)Nc3cc(Cl)ccc31)N2CC1CC1 [Compound I-46]
5,6.60,O=C(O)c1cccc([C@@H]2C[C@H]3[C@@H](N2)[C@H](c2cccc(Cl)c2)[C@]2(C(=O)Nc4cc(Cl)ccc42)N3CC2CC2)c1 [Compound I-28]
6,6.74,CCOc1cccc(CN2[C@H]3CCN(C(C)=O)C3[C@H](c3cccc(Cl)c3F)[C@]23C(=O)Nc2cc(Cl)ccc23)n1 (stereo partly shown) [Compound I-91]
7,6.97,O=C(O)c1ccc(C(=O)N2CC[C@H]3C2[C@H](c2cccc(Cl)c2F)[C@]2(C(=O)Nc4cc(Cl)ccc42)N3CC2CC2)cc1 (stereo partly shown) [Compound I-92]
8,7.40,O=C(O)CN1CC[C@H]2[C@@H]1[C@H](c1cccc(Cl)c1F)[C@]1(C(=O)Nc3cc(Cl)ccc31)N2CC1CC1 [Compound I-67]
9,7.54,CCOc1cccc(CN2[C@H]3CCN(Cc4cn[nH]c4C(=O)O)[C@H]3[C@H](c3cccc(Cl)c3F)[C@]23C(=O)Nc2cc(Cl)ccc23)c1 [Compound I-73]
10,7.62,CCOc1cccc(CN2[C@H]3CCN(CC4CCC(C(=O)O)CC4)[C@H]3[C@H](c3cccc(Cl)c3F)[C@]23C(=O)Nc2cc(Cl)ccc23)c1 (stereo partly shown) [Compound I-62]
11,8.22,CCOc1cccc(CN2[C@H]3CCN(C(C)=O)C3[C@H](c3ccnc(Cl)c3F)[C@]23C(=O)Nc2cc(Cl)ccc23)c1 (stereo partly shown) [Compound I-90]
12,8.22,CCOc1cccc(CN2[C@H]3CCN(CC4CC4C(=O)O)[C@H]3[C@H](c3cccc(Cl)c3F)[C@]23C(=O)Nc2cc(Cl)ccc23)c1 (stereo partly shown) [Compound I-64]
13,8.40,CCOc1cccc(CN2[C@H]3C[C@H](c4ccc(C(=O)O)cc4)N[C@H]3[C@H](c3cccc(Cl)c3F)[C@]23C(=O)Nc2cc(Cl)ccc23)c1 [Compound I-36]
14,8.70,CCOc1cccc(CN2[C@H]3CCN(CC(=O)O)[C@H]3[C@H](c3cccc(Cl)c3F)[C@]23C(=O)Nc2cc(Cl)ccc23)c1 [Compound I-70]

# Tested on: solid tumor xenograft models
# Assay: not given
# Conditions: Carol et al. 2013; cited from earlier work
row,Compound,tumor growth inhibition
1,CCOc1cc(C(C)(C)C)ccc1C1=N[C@@](C)(c2ccc(Cl)cc2)[C@@](C)(c2ccc(Cl)cc2)N1C(=O)N1CCN(CCCS(C)(=O)=O)CC1 [RG7112],induced tumor growth inhibition

# Tested on: human prostate tumor xenograft models harboring p53 wild-type
# Assay: not given
# Conditions: Tovar et al. 2013; cited from earlier work
row,Compound,antiproliferative and proapoptotic activity
1,CCOc1cc(C(C)(C)C)ccc1C1=N[C@@](C)(c2ccc(Cl)cc2)[C@@](C)(c2ccc(Cl)cc2)N1C(=O)N1CCN(CCCS(C)(=O)=O)CC1 [RG7112],antiproliferative and proapoptotic activity

# Tested on: human acute myeloid leukemia (AML) xenograft models harboring p53 wild-type
# Assay: not given
# Conditions: Tovar et al. 2013; cited from earlier work
row,Compound,antiproliferative and proapoptotic activity
1,CCOc1cc(C(C)(C)C)ccc1C1=N[C@@](C)(c2ccc(Cl)cc2)[C@@](C)(c2ccc(Cl)cc2)N1C(=O)N1CCN(CCCS(C)(=O)=O)CC1 [RG7112],antiproliferative and proapoptotic activity
